This is an account of results in ChEMBL document CHEMBL1124522, “Synthesis and antitumor activity of 5-deaza-5,6,7,8-tetrahydrofolic acid and its N10-substituted analogues” (J Med Chem, 1989).

Data set [1] can be described thus: Percent inhibition against C3H mammary adenocarcinoma at dose 12.5 mg/kg in C3H mice. Conditions: Mus musculus. It counts as functional.
A short description of data set [2]: In vivo anti tumor activity (toxic/total) at dose 25 mg/kg in C3H mice with transplantable murine solid tumor 6C3HED lymphosarcoma; Compound was tested on 10 mice. It counts as functional, Mus musculus.
Data set [3] can be described thus: In vivo antitumor activity (toxic/total) at dose 25 mg/kg in C3H mice with transplantable murine solid tumor C3H mammary adenocarcinoma; Compound was tested on 10 mice. In kind it is functional, Mus musculus.
A short description of data set [4]: In vivo antitumor activity (toxic/total) at dose 12.5 mg/kg in C3H mice with transplantable murine solid tumor C3H mammary adenocarcinoma; Compound was tested on 10 mice. It counts as functional, Mus musculus.
The nature of data set [5]: In vivo anti tumor activity (toxic/total) at dose 100 mg/kg in C3H mice with transplantable murine solid tumor 6C3HED lymphosarcoma; Compound was tested on 10 mice. In kind it is functional, Mus musculus.
The nature of data set [6]: Percent inhibition against C3H mammary adenocarcinoma at dose 50 mg/kg in C3H mice;Compound was toxic. The arrangement: dose 50 mg/kg. In kind it is ADME, organism-based. The note with it: mouse, in vivo.
A short description of data set [7]: Percent inhibition against 6C3HED lymphosarcoma at dose 25 mg/kg in C3H mice. In kind it is functional. The note with it: Mus musculus.
A short description of data set [8]: Percent inhibition against 6C3HED lymphosarcoma at dose 12.5 mg/kg in C3H mice. Conditions: Mus musculus. It counts as functional.
Data set [9] deals with CCRF-CEM. The data set can be described thus: Compound was tested for its antitumor activity against human lymphoblastic leukemic cells(CCRF-CEM) in vitro. In kind it is functional, cell-based. The note with it: ccrf-cem.
A short description of data set [10]: Percent inhibition against 6C3HED lymphosarcoma at dose 100 mg/kg in C3H mice. In kind it is functional. Conditions: Mus musculus.
Data set [11] in a line: In vivo antitumor activity (toxic/total) at dose 50 mg/kg in C3H mice with transplantable murine solid tumor C3H mammary adenocarcinoma; Compound was tested on 10 mice. In kind it is functional, Mus musculus.
A short description of data set [12]: In vivo anti tumor activity (toxic/total) at dose 50 mg/kg in C3H mice with transplantable murine solid tumor 6C3HED lymphosarcoma; Compound was tested on 10 mice. It counts as functional, Mus musculus.
Data set [13] can be described thus: Percent inhibition against C3H mammary adenocarcinoma at dose 25 mg/kg in C3H mice. In kind it is functional. The note with it: Mus musculus.
Data set [14] in a line: In vivo anti tumor activity (toxic/total) at dose 12.5 mg/kg in C3H mice with transplantable murine solid tumor 6C3HED lymphosarcoma; Compound was tested on 10 mice. In kind it is functional, Mus musculus.
A short description of data set [15]: Percent inhibition against 6C3HED lymphosarcoma at dose 50 mg/kg in C3H mice. It counts as functional. Conditions: Mus musculus.

`Nc1nc(O)c2c(n1)NCC(CN(C=O)c1ccc(C(=O)N[C@@H](CCC(=O)O)C(=O)O)cc1)C2` (stereo in doubt; 7b): the inhibition in vivo at 12.5 mg/kg in [1] worked out at 86%; in data set [8], 95%. Besides, the tox/total in data set [2] is on record as 1; in [3], 6; in data set [4] it was 0; in data set [5] it was 7; in data set [11], 10; in data set [12], 5. Also, the tox/total in data set [14] is given as 1. In addition, the Inhibition entry in data set [6] is given as “Toxic”. The inhibition in vivo at 25 mg/kg worked out at 100% in data set [7] and 98% in data set [13]. In data set [9], this compound returned an IC50 of 50 nM. The same compound yielded an inhibition in vivo at 100 mg/kg in data set [10] of 100%. This compound yielded an inhibition in vivo at 50 mg/kg in [15] of 100%.

A word on the inhibition in vivo: it is the share of the control response that was lost under treatment. As usually defined, the IC50 is the concentration that inhibits the measured activity by half. Lower therefore signals higher potency.
